Experimental data reported in patent US7893199B2, “Peptides having neutrophil-stimulating activity” (National University Corporation Gunma University, priority 2006, dated 2011).
Where a SMILES comes first, the peptide text is derived from it. Where no end group is shown, it is not given here.

System: HL-60 cells differentiated into the neutrophil-like cells
Assay: β-hexosaminidase-secreting activity of neutrophil-like differentiated HL-60 cells
Assay type: cell-based, human
Conditions: neutrophil-like differentiated HL-60 cells; for Activity (β-hexosaminidase-secreting activity class): lowest concentration class at which secretion was confirmed; for EC50: Table 1, read-out: EC50 (μM), β-hexosaminidase-secreting activity
Text: (1) Culture of Cell and Differentiation Into Neutrophil-like Cell
In this time, the cells were subcultured at a cell density of 1.0×10^5 cells/ml to 1.5×10^6 cells/ml, the number of cells was counted using a microscope, and the state of the cells was also confirmed.
The HL-60 cells were differentiated into neutrophil-like cells by setting the cell density in the flask to about 1.0×10^6 cells/ml, adding dibutylyl-cAMP (db-cAMP) as a differentiation-inducing agent so as to have a final concentration of 500 μM, and incubating the cells in the presence of CO2 at 37° C. for 3 days.
(2) Stimulation of Cell and Measurement of β-Hexosaminidase-secreting Activity
The cells were collected by centrifuging the suspension of the differentiated HL-60 cells (1,000 rpm, 5 minutes, 4° C.). After that, the following operation was repeated three times to wash the cells: Hepes buffered Hank's solution (HBHS) containing ice-cooled 0.1% BSA (1.2 mM CaCl2.2H2O, 5.4 mM KCl, 0.44 mM KH2PO4, 0.49 mM MgCl2.6H2O, 0.41 mM MgSO4.7H2O, 136.9 mM NaCl, 0.34 mM Na2HPO4, 10 mM Hepes, 4.2 mM NaHCO3, 5.5 mM D-glucose, pH 7.4) was added to the cells; the mixture was suspended by inversion; and the mixture was centrifuged again (1,000 rpm, 5 minutes, 4° C.). Subsequently, HBHS was added so that the mixture has a cell density of 5.6×10^6 cells/ml and suspended. Then, DNase I and cytochalasin B were each added so as to have a final concentration of 5 μg/ml, and the cell suspension was dispensed in an amount of 90 μl (5×10^5 cells) on ice. […] After the cell stimulation for 10 minutes, 100 μl of an ice-cooled stop solution (25 mM Tris, 123 mM NaCl, 2.7 mM KCl, pH 7.4) were added, and immediately, the mixture was centrifuged (5,000 rpm, 1 minute, 4° C.). 200 μl of the obtained supernatant were transferred to a new tube.
The amount of β-hexosaminidase released in the supernatant of the reaction solution was measured by an enzyme reaction using p-nitrophenyl-N-acetyl-μ-D-glucosaminide as a substrate (Non-patent Document 12). That is, the supernatant of the reaction solution was dispensed in an amount of 90 μl to a 96-well plate. 60 μl of a substrate solution (10 mM p-nitrophenyl-N-acetyl-μ-D-glucosaminide, 40 mM citrate, 70 mM Na2HPO4, pH 4.5) were added to each well, followed by incubation at 37° C. for 1 hour. After the reaction, 100 μl of a stop solution (0.4 M glycine, pH 10.7) were added to each well and a color of the released p-nitrophenol was developed. The color development was measured with a plate reader at adsorption at 405 nm (reference: 492 nm). The all amount of β-hexosaminidase contained in the cells was quantified by treating the cells with Triton X-100 having a final concentration of 0.05%. In addition, the amount of β-hexosaminidase secreted by stimulation of 10 μM fMLP was also measured, and the ratio of the secretion amount by stimulation with each peptide to the above sectretion amount by stimulation with fMLP.

EC50 | Compound | Activity (β-hexosaminidase-secreting activity class)
– | 002 (MASRLLRGAGTLAAQALRARGPSGAAAMR) [compound 002] | ▴ (a peptide in which the β-hexosaminidase-secreting activity was confirmed at a concentration of 100 μM or less)
– | 003 (MASRLLRGAGTLAAQALRAR) [compound 003] | ▴ (a peptide in which the β-hexosaminidase-secreting activity was confirmed at a concentration of 100 μM or less)
– | 005 (MASRLLRGAGTLAAQALR) [compound 005] | ▴ (a peptide in which the β-hexosaminidase-secreting activity was confirmed at a concentration of 100 μM or less)
– | 006 (MGGLWRPGWRCVPFCGWRWI) [compound 006] | ▴ x
> 100 µM | 008 (MLGQSIRRFTTSVVR) [compound 008] | ▴ (a peptide in which the β-hexosaminidase-secreting activity was confirmed at a concentration of 100 μM or less)
> 40 µM | 010 (MLGQSIRRFTTSVVRR) [compound 010] | ● (a peptide in which the β-hexosaminidase-secreting activity was confirmed at a concentration of 10 μM or less)
> 30 µM | 013 (MALPLRPLTRGL) [compound 013] | ● (a peptide in which the β-hexosaminidase-secreting activity was confirmed at a concentration of 10 μM or less)
> 20 µM | 016 (MPLLRGRCPARRHYRRLALLGLQPAPRFA) [compound 016] | ● (a peptide in which the β-hexosaminidase-secreting activity was confirmed at a concentration of 10 μM or less)
> 40 µM | 017 (FTTFLTPAAYVLGNLKQFRRN) [compound 017] | ▴ (a peptide in which the β-hexosaminidase-secreting activity was confirmed at a concentration of 100 μM or less)
– | 021 (MAIQFRSLFPLALPGMLALLGWWWFFSRK) [compound 021] | ● (a peptide in which the β-hexosaminidase-secreting activity was confirmed at a concentration of 10 μM or less)
> 30 µM | 027 (MQRAVSVVARLGFRLQAFPPALCRPLSC) [compound 027] | ● (a peptide in which the β-hexosaminidase-secreting activity was confirmed at a concentration of 10 μM or less)
> 50 µM | 029 (MAAPRAGRGAGWSLRAWRALGGIRWGRRPRL) [compound 029] | ● (a peptide in which the β-hexosaminidase-secreting activity was confirmed at a concentration of 10 μM or less)
> 40 µM | 039 (MAASVVCRAATAGAQVLLRARRSPALLRTPALRS) [compound 039] | ● (a peptide in which the β-hexosaminidase-secreting activity was confirmed at a concentration of 10 μM or less)
> 30 µM | 044 (MAAPAVSGLSRQVRCFSTSVVRPF) [compound 044] | ● (a peptide in which the β-hexosaminidase-secreting activity was confirmed at a concentration of 10 μM or less)
> 30 µM | 045 (MAAALLARASGPARRALCPRAWRQ) [compound 045] | ● (a peptide in which the β-hexosaminidase-secreting activity was confirmed at a concentration of 10 μM or less)
> 5 µM | 046 (MLPAALLRRPGLGRLVRHARAY) [compound 046] | ∘ (a peptide in which the β-hexosaminidase-secreting activity was confirmed at a concentration of 1 μM or less)
> 20 µM | 047 (MLSALARPVSAALRRSFSTSAQNN) [compound 047] | ● (a peptide in which the β-hexosaminidase-secreting activity was confirmed at a concentration of 10 μM or less)
0.3 µM | CC[C@H](C)[C@H](NC(=O)[C@H](CS)NC(=O)[C@H](CC(C)C)NC(=O)[C@H](CCC(N)=O)NC(=O)[C@@H]1CCCN1C(=O)[C@H](CO)NC(=O)[C@H](Cc1ccccc1)NC(=O)[C@H](Cc1c[nH]cn1)NC(=O)[C@H](C)NC(=O)[C@H](CCCNC(=N)N)NC(=O)[C@H](CC(C)C)NC(=O)[C@H](CS)NC(=O)[C@H](Cc1c[nH]cn1)NC(=O)[C@H](CCCNC(=N)N)NC(=O)CNC(=O)[C@@H](NC(=O)[C@H](Cc1c[nH]cn1)NC(=O)[C@H](CCCNC(=N)N)NC(=O)[C@H](CC(C)C)NC(=O)[C@H](CC(C)C)NC(=O)[C@H](CC(C)C)NC(=O)[C@H](C)NC(=O)[C@H](C)NC(=O)[C@@H](N)CCSC)C(C)C)C(=O)N[C@@H](CCCNC(=N)N)C(=O)N[C@@H](CC(N)=O)C(=O)N[C@@H](C)C(=O)N[C@H](C(=O)N1CCC[C@H]1C(=O)N[C@@H](CC(C)C)C(=O)O)C(C)C [compound 023] (H-MAALLLRHVGRHCLRAHFSPQLCIRNAVPL-OH; N-terminus and C-terminus assumed) | ⊚ (a peptide in which the β-hexosaminidase-secreting activity was confirmed at a concentration of 300 nM or less)
1 µM | CC[C@H](C)[C@H](NC(=O)[C@H](CC(C)C)NC(=O)[C@@H](N)CCSC)C(=O)N1CCC[C@H]1C(=O)N[C@@H](Cc1ccccc1)C(=O)N[C@@H](CO)C(=O)N[C@@H](CCSC)C(=O)N[C@@H](CCCCN)C(=O)N[C@@H](CC(N)=O)C(=O)N[C@@H](CS)C(=O)N[C@@H](Cc1ccccc1)C(=O)N[C@@H](CCC(N)=O)C(=O)N[C@@H](CC(C)C)C(=O)N[C@@H](CC(C)C)C(=O)N[C@@H](CS)C(=O)N[C@@H](CC(N)=O)C(=O)N[C@@H](CS)C(=O)N[C@@H](CCC(N)=O)C(=O)N[C@H](C(=O)N1CCC[C@H]1C(=O)N[C@@H](C)C(=O)N[C@@H](C)C(=O)NCC(=O)N[C@@H](Cc1ccccc1)C(=O)N[C@@H](CCCCN)C(=O)O)C(C)C [compound 030] (H-MLIPFSMKNCFQLLCNCQVPAAGFK-OH; N-terminus and C-terminus assumed) | ∘ (a peptide in which the β-hexosaminidase-secreting activity was confirmed at a concentration of 1 μM or less)
0.8 µM | MAAAALGQIWARKLLSVPWLLCGPRRY [compound 022] | ⊚ (a peptide in which the β-hexosaminidase-secreting activity was confirmed at a concentration of 300 nM or less)
10 µM | MAAVVALSLRRRLPATTLGGACLQASRG [compound 026] | ● (a peptide in which the β-hexosaminidase-secreting activity was confirmed at a concentration of 10 μM or less)
7 µM | MALLTAAARLLGTKNASCLVLAARHAS [compound 050] | ● (a peptide in which the β-hexosaminidase-secreting activity was confirmed at a concentration of 10 μM or less)
2 µM | MALRAKAEVCMAVPWLSLQRAQAL [compound 049] | ● (a peptide in which the β-hexosaminidase-secreting activity was confirmed at a concentration of 10 μM or less)
1.9 µM | MALVHKLLRGTYFLRKFSKPTSAL [compound 025] | ⊚ (a peptide in which the β-hexosaminidase-secreting activity was confirmed at a concentration of 300 nM or less)
15 µM | MASRLLRGAGTLAAQALRA [compound 004] | ● (a peptide in which the β-hexosaminidase-secreting activity was confirmed at a concentration of 10 μM or less)
23 µM | MASRLLRGAGTLAAQALRARGPSGAAAMRSM [compound 001] | ● (a peptide in which the β-hexosaminidase-secreting activity was confirmed at a concentration of 10 μM or less)
5 µM | MAVVGVSSVSRLLGRSRPQLGRPM [compound 009] | ∘ (a peptide in which the β-hexosaminidase-secreting activity was confirmed at a concentration of 1 μM or less)
0.1 µM | MFPLARNALSSLKIQSILQSMARH [compound 048] | ⊚ (a peptide in which the β-hexosaminidase-secreting activity was confirmed at a concentration of 300 nM or less)
0.38 µM | MFPLVKSALNRLQVRSIQQTMARQ [compound 015] | ⊚ (a peptide in which the β-hexosaminidase-secreting activity was confirmed at a concentration of 300 nM or less)
